Experiments:
Raw264.7 cells = test: NO assay (nitrite, Griess reagent) in Raw264.7 macrophages; type: cell-based, mouse; conditions: 500 μM inhibitor; cells cultured on AM
Protocol: Raw 264.7 cells, a mouse macrophage cell line, were obtained from the ATCC and cultured in phenol red-free Dulbecco's modified Eagle's medium (DMEM) supplemented with 10% fetal bovine serum, 50 μg/ml gentamicin, and 1.25 μg/ml fungizone in 100 mm culture dishes. When cells became 70%-80% confluent, the medium was removed and cells were treated with trypsin/EDTA for 10 min at 25° C. After digestion, cells were still firmly attached to the dish, so the trypsin/EDTA solution was removed. […] After centrifugation at 500×g for 5 min, the medium was removed, the cell pellet resuspended in the DMEM/ITS medium, cells counted, and cell density adjusted to 0.5×10^6/ml. […]
At the end of the cultivation, the cell culture medium in each well was harvested individually and centrifuged at 12,000×g for 10 min at 4° C. […] NO production was assessed by measuring the nitrite, its stable degradation product, using Griess reagent according to the manufacturer's protocol. Briefly, 50 μl of the cleared medium was mixed with 100 μl of the Griess reagents (ICN Biomedicals, Aurora, Ohio), after 15 min the absorbance was measured at 550 nm using Fusion™ universal microplate analyzer (Packard, Meriden, Conn.). The amount of nitrite was calculated from a standard curve of sodium nitrite (NaNO2; Sigma, St. Louis, Mo.).

Raw 264.7 cells = test: Hoechst-33342 nuclear staining of macrophages; type: cell-based, mouse; conditions: 500 μM inhibitor; cells on AM with IFN γ
From the text: To determine if the aforementioned cell death was mediated by apoptosis, cells in parallel experiments were subjected to Hoechst-33342 staining. Fragmented nuclei with strong Hoechst staining were found more in AM/IFN γ as compared to AM without IFN γ and to their plastic controls. Percentages of Hoechst-33342-positive apoptotic nuclei were 12.4±2.7% (PL), 16.5±3.1% (PL/IFN γ), 14.7±1.1% (AM), and 63.8±7.9% (AM/IFN γ). There was no statistical difference between PL and PL/IFN γ and between PL and AM (all p>0.05), while there was a statistical difference between AM and AM/IFN γ and between PL/IFNγ and AM/IFNγ (all p<0.001). […] In contrast, there was no such giant cell in AM/IFNγ cultures.

[1] = system: human corneal fibroblasts; test: Cell morphology and density of human corneal fibroblasts after treatment; type: cell-based; conditions: HA alone; low concentrations of AME or jelly extracts
From the text: The above changes were even more dramatic in lyophilized AME or L/AME than their non-lyophilized counterparts in AME or Jelly extracts, respectively (FIG. 6).

TGF-β1 promoter = TGF-β1 promoter suppression (adenoviral promoter-luciferase) in human corneal fibroblasts; type: cell-based
Protocol: When human corneal fibroblasts cultured on 100 mm plastic dish in DMEM/10% FBS reached 80% confluency (˜1.0×10^6 cells), cells were washed twice with DMEM/10% FBS. Adenoviruses-TGF-β1 promoter-luciferase (MOI=37.5) and Adeno-CMV-beta-gal (MOI=30) were added to the culture plates with 10 ml of the fresh DMEM/10% FBS and cells were incubated at 37° C. for 4 hours, and trypsinized for 5 minutes using 4 ml prewarmed trypsin/EDTA. After trypsin/EDTA activity was neutralized with 8 ml of DMEM/10% FBS, cells were collected into a 15 ml tube and centrifuged at 1,500 rpm (˜600×g) for 5 min. After decanting the medium, cells were resuspended in 15 ml DMEM/10% FBS, and cell viability was measured by trypan blue stain. Viable 3×10^4 cells were seeded on a plastic 24 well or on the stromal surface of AM inserts. A total of 4 wells or inserts were prepared. Cells were then incubated at 37° C. in a CO2 incubator for 48 hours.
After carefully removing the growth medium from each well, cells were rinsed with 0.5 ml PBS at lease twice, taking care not to dislodge attached cells. After removing as much as PBS in the well, 100 μl 1× lysis buffer was added to cover the cells, and cells were mechanically scraped and transferred to a microcentrifuge tube placed on ice. Cell lysates were collected by vortexing for 10-15 sec and centrifuging at 12,000×g for 15 sec at room temperature. […]

Row | suppressive activity on TGF-β1 promoter, HA alone (TGF-β1 promoter; 100 μg/ml) | suppression of TGF-β1 promoter activation (TGF-β1 promoter; compared to the PBS control, normalized with beta-galatosidase activity, FIG. 5) | Molecule | IFN γ induced nitrite level with NO synthase inhibitor (Raw264.7 cells) [µM] | extent of macrophage apoptosis with NO synthase inhibitor (Raw 264.7 cells) | change in cell morphology [1]
1 |  |  | CC(=O)O.CNC(=N)NCCC[C@H](N)C(=O)O [L-NMMA, NG-monomethyl-L-arginine acetate] | 19.8 ± 4.9 | not significantly attenuated | 
2 |  |  | CC(=N)NCCCC[C@H](N)C(=O)O.Cl [L-NIL, L-N-6-(1-iminoethyl) lysine hydrochloride] | 14.0 ± 9.8 | not significantly attenuated | 
3 | mild suppressive activity | showed suppression | hyaluronic acid [HA] |  |  | no change in cell morphology

Reference: patent US8455009B2, “Amniotic membrane preparations and purified compositions and anti-inflammation methods” (TissueTech, Inc., priority 2005, dated 2013)
